#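 Compound exposure: 48 hours, 5 concentrations, 96-well plates. Abbreviation: GI50, concentration required for 50% inhibition of growth.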 Calls of active or inactive are those of the source. No stated cut-off is given here; in the data, active = GI50 up to about 1.1 µM and inactive = higher.
# Assays:
# Test in all cases: NCI anticancer screen, dose series, 48 h
# 786-0 = system: 786-0
# A498 = system: A498
# A549 = system: A549
# ACHN = system: ACHN
# BT-549 = system: BT-549
# CAKI-1 = system: CAKI-1
# CCRF-CEM = system: CCRF-CEM
# COLO 205 = system: COLO 205
# DU-145 = system: DU-145
# EKVX = system: EKVX
# HCC 2998 = system: HCC 2998
# HCT-116 = system: HCT-116
# HCT-15 = system: HCT-15
# HL-60 = system: HL-60
# HOP-62 = system: HOP-62
# HOP-92 = system: HOP-92
# HT-29 = system: HT-29
# Hs-578T = system: Hs-578T
# IGROV-1 = system: IGROV-1
# K562 = system: K562
# KM12 = system: KM12
# M14 = system: M14
# MCF7 = system: MCF7
# MDA-MB-231 = system: MDA-MB-231
# MDA-MB-435 = system: MDA-MB-435
# MDA-N = system: MDA-N
# MOLT-4 = system: MOLT-4
# Malme-3M = system: Malme-3M
# NCI-H226 = system: NCI-H226
# NCI-H23 = system: NCI-H23
# NCI-H460 = system: NCI-H460
# NCI-H522 = system: NCI-H522
# NCI/ADR-RES = system: NCI/ADR-RES
# OVCAR-3 = system: OVCAR-3
# OVCAR-4 = system: OVCAR-4
# OVCAR-5 = system: OVCAR-5
# OVCAR-8 = system: OVCAR-8
# PC-3 = system: PC-3
# RPMI-8226 = system: RPMI-8226
# RXF 393 = system: RXF 393
# SF-268 = system: SF-268
# SF-295 = system: SF-295
# SF-539 = system: SF-539
# SK-MEL-28 = system: SK-MEL-28
# SK-MEL-2 = system: SK-MEL-2
# SK-MEL-5 = system: SK-MEL-5
# SK-OV-3 = system: SK-OV-3
# SN12C = system: SN12C
# SNB-19 = system: SNB-19
# SNB-75 = system: SNB-75
# SR = system: SR
# T47D = system: T47D
# TK-10 = system: TK-10
# U-251 = system: U-251
# UACC-257 = system: UACC-257
# UACC-62 = system: UACC-62
# UO-31 = system: UO-31
# LOX IMVI = system: LOX IMVI
# SW-620 = system: SW-620
structure (smiles),measurement,setting,value
COC(=O)c1c(OC(C)=O)ccc2c1c1c(n2Cc2ccccc2)C(=O)c2ccccc2C1=O,GI50,786-0,25.6 µM (inactive)
same,GI50,A498,19.4 µM (inactive)
same,GI50,A549,26.4 µM (inactive)
same,GI50,ACHN,30.1 µM (inactive)
same,GI50,BT-549,23.2 µM (inactive)
same,GI50,CAKI-1,22 µM (inactive)
same,GI50,CCRF-CEM,36.3 µM (inactive)
same,GI50,COLO 205,16.9 µM (inactive)
same,GI50,DU-145,17 µM (inactive)
same,GI50,EKVX,19.6 µM (inactive)
same,GI50,HCC 2998,16.2 µM (inactive)
same,GI50,HCT-116,15.7 µM (inactive)
same,GI50,HCT-15,19.7 µM
same,GI50,HL-60,25.8 µM (inactive)
same,GI50,HOP-62,24.1 µM (inactive)
same,GI50,HOP-92,21.4 µM (inactive)
same,GI50,HT-29,16.9 µM (inactive)
same,GI50,Hs-578T,19.9 µM (inactive)
same,GI50,IGROV-1,20.1 µM (inactive)
same,GI50,K562,25.7 µM (inactive)
same,GI50,KM12,20.5 µM (inactive)
same,GI50,M14,22 µM (inactive)
same,GI50,MCF7,33.9 µM (inactive)
same,GI50,MDA-MB-231,17.1 µM (inactive)
same,GI50,MDA-MB-435,18.7 µM (inactive)
same,GI50,MDA-N,18.7 µM (inactive)
same,GI50,MOLT-4,16.8 µM (inactive)
same,GI50,Malme-3M,30 µM (inactive)
same,GI50,NCI-H226,23 µM (inactive)
same,GI50,NCI-H23,19.5 µM (inactive)
same,GI50,NCI-H460,30.1 µM (inactive)
same,GI50,NCI-H522,19.5 µM (inactive)
same,GI50,NCI/ADR-RES,24 µM (inactive)
same,GI50,OVCAR-3,17.6 µM (inactive)
same,GI50,OVCAR-4,21.8 µM (inactive)
same,GI50,OVCAR-5,20.1 µM (inactive)
same,GI50,OVCAR-8,27.7 µM (inactive)
same,GI50,PC-3,22.4 µM (inactive)
same,GI50,RPMI-8226,15.7 µM (inactive)
same,GI50,RXF 393,18.8 µM (inactive)
same,GI50,SF-268,26.5 µM (inactive)
same,GI50,SF-295,17.5 µM (inactive)
same,GI50,SF-539,17.9 µM (inactive)
same,GI50,SK-MEL-28,21.4 µM (inactive)
same,GI50,SK-MEL-2,18.7 µM (inactive)
same,GI50,SK-MEL-5,14.2 µM (inactive)
same,GI50,SK-OV-3,23.6 µM (inactive)
same,GI50,SN12C,19.1 µM (inactive)
same,GI50,SNB-19,35.3 µM (inactive)
same,GI50,SNB-75,22.2 µM (inactive)
same,GI50,SR,24.9 µM (inactive)
same,GI50,T47D,20 µM (inactive)
same,GI50,TK-10,33.7 µM (inactive)
same,GI50,U-251,19.4 µM (inactive)
same,GI50,UACC-257,10.7 µM (inactive)
same,GI50,UACC-62,22.5 µM (inactive)
same,GI50,UO-31,37.2 µM (inactive)
C/C(=N\NC(=S)N1CCN(c2ccccn2)CC1)c1cccc(C)n1,GI50,786-0,1.9 µM (inactive)
same,GI50,A498,2.75 µM (inactive)
same,GI50,A549,3.48 µM (inactive)
same,GI50,ACHN,3 µM (inactive)
same,GI50,BT-549,5.26 µM (inactive)
same,GI50,CCRF-CEM,< 0.01 µM (active)
same,GI50,COLO 205,< 0.01 µM (active)
same,GI50,DU-145,2.85 µM (inactive)
same,GI50,HCC 2998,11.9 µM (inactive)
same,GI50,HCT-116,< 0.01 µM (active)
same,GI50,HCT-15,< 0.01 µM
same,GI50,HL-60,0.0115 µM (active)
same,GI50,HOP-62,6.31 µM (inactive)
same,GI50,HOP-92,3.81 µM (inactive)
same,GI50,HT-29,< 0.01 µM (active)
same,GI50,Hs-578T,12.6 µM (inactive)
same,GI50,IGROV-1,< 0.01 µM (active)
same,GI50,K562,0.585 µM (active)
same,GI50,KM12,3.1 µM (inactive)
same,GI50,LOX IMVI,2.15 µM (inactive)
same,GI50,M14,0.261 µM (active)
same,GI50,MCF7,< 0.01 µM (active)
same,GI50,MDA-MB-231,< 0.01 µM (active)
same,GI50,MDA-MB-435,3.61 µM (inactive)
same,GI50,MDA-N,3.14 µM (inactive)
same,GI50,MOLT-4,< 0.01 µM (active)
same,GI50,Malme-3M,2.59 µM (inactive)
same,GI50,NCI-H226,2.06 µM (inactive)
same,GI50,NCI-H23,5.58 µM (inactive)
same,GI50,NCI-H460,1.03 µM (active)
same,GI50,NCI-H522,0.0421 µM (active)
same,GI50,NCI/ADR-RES,< 0.01 µM (active)
same,GI50,OVCAR-3,< 0.01 µM (active)
same,GI50,OVCAR-5,4.03 µM (inactive)
same,GI50,PC-3,< 0.01 µM (active)
same,GI50,RPMI-8226,< 0.01 µM (active)
same,GI50,RXF 393,1.32 µM (inactive)
same,GI50,SF-268,1.51 µM (inactive)
same,GI50,SF-295,2.9 µM (inactive)
same,GI50,SF-539,1.27 µM (inactive)
same,GI50,SK-MEL-28,7.1 µM (inactive)
same,GI50,SK-MEL-2,2.15 µM (inactive)
same,GI50,SK-MEL-5,1.53 µM (inactive)
same,GI50,SK-OV-3,8.65 µM (inactive)
same,GI50,SN12C,7.98 µM (inactive)
same,GI50,SNB-19,7.26 µM (inactive)
same,GI50,SNB-75,3.84 µM (inactive)
same,GI50,SR,1.44 µM (inactive)
same,GI50,SW-620,< 0.01 µM (active)
same,GI50,T47D,0.528 µM (active)
same,GI50,TK-10,7.78 µM (inactive)
same,GI50,U-251,< 0.01 µM (active)
same,GI50,UACC-62,2.23 µM (inactive)
same,GI50,UO-31,9.14 µM (inactive)
N=c1c2sc3nc4ccccc4n3c2ncn1Cc1ccccc1,GI50,786-0,> 100 µM (inactive)
same,GI50,A498,> 100 µM (inactive)
same,GI50,A549,> 100 µM (inactive)
same,GI50,ACHN,> 100 µM (inactive)
same,GI50,BT-549,> 100 µM (inactive)
same,GI50,CAKI-1,> 100 µM (inactive)
same,GI50,CCRF-CEM,> 100 µM (inactive)
same,GI50,COLO 205,> 100 µM (inactive)
same,GI50,DU-145,> 100 µM (inactive)
same,GI50,EKVX,> 100 µM (inactive)
same,GI50,HCC 2998,> 100 µM (inactive)
same,GI50,HCT-116,> 100 µM (inactive)
same,GI50,HCT-15,> 100 µM
same,GI50,HOP-62,> 100 µM (inactive)
same,GI50,HOP-92,> 100 µM (inactive)
same,GI50,Hs-578T,> 100 µM (inactive)
same,GI50,IGROV-1,> 100 µM (inactive)
same,GI50,KM12,0.957 µM (active)
same,GI50,LOX IMVI,> 100 µM (inactive)
same,GI50,M14,> 100 µM (inactive)
same,GI50,MCF7,> 100 µM (inactive)
same,GI50,MDA-MB-231,> 100 µM (inactive)
same,GI50,MDA-MB-435,> 100 µM (inactive)
same,GI50,MDA-N,> 100 µM (inactive)
same,GI50,MOLT-4,> 100 µM (inactive)
same,GI50,Malme-3M,> 100 µM (inactive)
same,GI50,NCI-H226,> 100 µM (inactive)
same,GI50,NCI-H23,> 100 µM (inactive)
same,GI50,NCI-H522,> 100 µM (inactive)
same,GI50,NCI/ADR-RES,> 100 µM (inactive)
same,GI50,OVCAR-3,> 100 µM (inactive)
same,GI50,OVCAR-4,> 100 µM (inactive)
same,GI50,OVCAR-5,> 100 µM (inactive)
same,GI50,OVCAR-8,> 100 µM (inactive)
same,GI50,PC-3,> 100 µM (inactive)
same,GI50,RPMI-8226,> 100 µM (inactive)
same,GI50,RXF 393,63.5 µM (inactive)
same,GI50,SF-268,> 100 µM (inactive)
same,GI50,SF-295,> 100 µM (inactive)
same,GI50,SF-539,> 100 µM (inactive)
same,GI50,SK-MEL-28,> 100 µM (inactive)
same,GI50,SK-MEL-2,> 100 µM (inactive)
same,GI50,SK-MEL-5,> 100 µM (inactive)
same,GI50,SK-OV-3,> 100 µM (inactive)
same,GI50,SNB-19,> 100 µM (inactive)
same,GI50,SNB-75,> 100 µM (inactive)
same,GI50,SR,> 100 µM (inactive)
same,GI50,SW-620,> 100 µM (inactive)
same,GI50,T47D,> 100 µM (inactive)
same,GI50,TK-10,84.3 µM (inactive)
same,GI50,U-251,> 100 µM (inactive)
same,GI50,UACC-257,> 100 µM (inactive)
same,GI50,UACC-62,> 100 µM (inactive)
same,GI50,UO-31,> 100 µM (inactive)

# Source: ChEMBL document CHEMBL1201862, “PubChem BioAssay data set” (2004)
